From patent US20060019954A1, “Method for reducing the likelihood of the occurrence of cardiac arrhythmias” (Cedars-Sinai Medical Center, priority 2004, published 2006)

System: SCD canine subjects (myocardial infarction, complete AV block, NGF to left stellate ganglion)
Test: Effect of BRL 37344 infusion in the canine sudden cardiac death (SCD) model
Type: in vivo
Description: The canine SCD model is created by inducing myocardial hyperinnervation within the left stellate ganglion in combination with creating a complete atrioventricular (AV) block and inducing a relatively mild myocardial infarction (MI). The AV block is typically created by ablating the AV node of the heart using an ablation catheter and the MI is induced by ligating the left anterior descending portion of the coronary artery. Myocardial hyperinnervation is stimulated by application of nerve growth factor (NGF) or other neurtrophic vectors to the left stellate ganglion. Alternatively, electrical stimulation signals may be applied to the left stellate ganglion.
Four canine groups were evaluated in this study. MI was created in each of the canine subjects by ligating the left anterior descending coronary artery. Complete AV block was created by radiofrequency ablation of the atrioventricular junction in the MI, SCD and RSG Groups. An ICD was used to monitor for the occurrence of ventricular arrhythmias. Nerve growth factor (NGF) was infused by an osmotic pump throughout a 4-5 week period in the left stellate ganglion (LSG) of the canine subjects in the SCD Group and in the right stellate ganglion (RSG) of the canine subjects in the RSG Group. The canine subjects in the SCD Group was characterized by a high incidence of SCD (44%), long QTc intervals and frequent episodes of ventricular tachycardia, whereas the RSG Group had no SCD, short QTc intervals and few episodes of VT.
Two canine groups were studied and compared to ascertain the effect of a β3 adrenergic receptor agonist (BRL 37344) on the incidence of phase-2 VT, typically leading to sudden cardiac death. Table 4 compares the incidence of phase-2 VT, QTc intervals and the size of myocardial infarction (“MI”) of SCD canine subjects and SCD canine subjects receiving BRL 37344 infusion.
β3 adrenergic receptor agonist BRL 37344 was infused subcutaneously by an osmotic pump (2 μg/kg/hr) for two weeks in two canine subjects with myocardial infarction, complete atrioventricular block and nerve growth factor to the left stellate ganglion (BRL Group). Surface ECG was continuously recorded by Data Sciences International (DSI) and analyzed manually.

## C[C@H](Cc1ccc(OCC(=O)O)cc1)NC[C@H](O)c1cccc(Cl)c1 [BRL 37344]
2 μg/kg/hr by osmotic pump for a two week period, mammalian SCD models
  Effect on incidence of ventricular arrhythmias: effective in significantly reducing the incidence of ventricular arrhythmias
SCD canine subjects, BRL 37344 2 μg/kg/hr subcutaneous by osmotic pump for two weeks, n=2, SCD Group without infusion 2.0 ± 2.0 per day
  Incidence of Phase-2 VT: 0.08±0.11 per day
SCD canine subjects, BRL 37344 2 μg/kg/hr subcutaneous infusion, throughout follow-up, SCD Group without infusion 400 ms
  QTc Interval: 350 ms
SCD canine subjects, BRL 37344 2 μg/kg/hr subcutaneous infusion, SCD Group without infusion 17 ± 4%
  Size of MI: 16±1.2%
Short runs of VT episodes observed from day 36 to day 44 after surgery
  Phase-2 VT episodes, first canine subject of the BRL Group: no phase-2 VT for five weeks
Two canine subjects of the BRL Group, followed up for two months
  Occurrence of sudden cardiac death during follow-up: without SCD
Two months follow-up
  Phase-2 VT episodes, second canine subject of the BRL Group: no phase-2 VT episodes
